The text below walks through data of ChEMBL document CHEMBL1132020, “Highly potent inhibitors of the Grb2-SH2 domain” (Bioorg Med Chem Lett, 1999).

The target in the assay is Growth factor receptor-bound protein 2 (Homo sapiens, UniProt P62993). Briefly: Inhibition of Grb-SH2 domain binding to phosphorylated carboxy-terminal intracellular domain of epidermal growth factor receptor. The assay is classed as cell-based.
Chain of Growth factor receptor-bound protein 2 (P62993 whole entry, the tested form may be a part): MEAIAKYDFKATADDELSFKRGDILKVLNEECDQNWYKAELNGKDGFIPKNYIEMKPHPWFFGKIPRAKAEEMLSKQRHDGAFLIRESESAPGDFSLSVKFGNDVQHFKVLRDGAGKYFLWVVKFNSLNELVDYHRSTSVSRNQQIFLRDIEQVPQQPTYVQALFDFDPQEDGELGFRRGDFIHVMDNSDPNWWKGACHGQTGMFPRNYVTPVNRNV
`CC(=O)N[C@@H](Cc1ccc(CP(=O)(O)O)cc1)C(=O)NC1(C(=O)N[C@@H](CC(N)=O)C(=O)NCCCn2ccc3cc(Cl)ccc32)CCCCC1` returned an IC50 of 59 nM.

For `CC(=O)N[C@@H](Cc1ccc(CP(=O)(O)O)cc1)C(=O)NC1(C(=O)N[C@@H](CC(N)=O)C(=O)NCCCn2ccc3ccccc32)CCCCC1`, the IC50 stood at 1.2 nM.

As to `COc1ccc2c(CCCNC(=O)[C@H](CC(N)=O)NC(=O)C3(NC(=O)[C@H](Cc4ccc(CP(=O)(O)O)cc4)NC(C)=O)CCCCC3)c[nH]c2c1`, the IC50 was 14 nM.

For the compound `CC(=O)N[C@@H](Cc1ccc(CP(=O)(O)O)cc1)C(=O)NC1(C(=O)N[C@@H](CC(N)=O)C(=O)NCCCc2c[nH]c3ccccc23)CCCCC1`, the IC50 amounted to 155 nM.

`CC(=O)N[C@@H](Cc1ccc(CP(=O)(O)O)cc1)C(=O)NC1(C(=O)N[C@@H](CC(N)=O)C(=O)NCCCn2ccc3cc(C)ccc32)CCCCC1` had an IC50 of 0.4 nM.

With `CC(=O)N[C@@H](Cc1ccc(CP(=O)(O)O)cc1)C(=O)NC1(C(=O)N[C@@H](CC(N)=O)C(=O)NCCCn2cc(C)c3ccccc32)CCCCC1`, the IC50 stood at 81 nM.

Take `CC(=O)N[C@@H](Cc1ccc(CP(=O)(O)O)cc1)C(=O)NC1(C(=O)N[C@@H](CC(N)=O)C(=O)NCCCn2c(C)cc3ccccc32)CCCCC1`: the IC50 was found to be 14.7 nM.

The compound `CC(=O)N[C@@H](Cc1ccc(CP(=O)(O)O)cc1)C(=O)NC1(C(=O)N[C@@H](CC(N)=O)C(=O)NCCCn2ccc3cc(N(C)C)ccc32)CCCCC1` yielded an IC50 of 3.4 nM.

Take `COc1ccc2c(ccn2CCCNC(=O)[C@H](CC(N)=O)NC(=O)C2(NC(=O)[C@H](Cc3ccc(CP(=O)(O)O)cc3)NC(C)=O)CCCCC2)c1`: the IC50 turned out to be 0.9 nM.

Regarding `CC(=O)N[C@@H](Cc1ccc(CP(=O)(O)O)cc1)C(=O)NC1(C(=O)N[C@@H](CC(N)=O)C(=O)NCCCc2cn(C)c3ccccc23)CCCCC1`, the IC50 stood at 9.2 nM.

In turn, `CC(=O)N[C@@H](Cc1ccc(CP(=O)(O)O)cc1)C(=O)NC1(C(=O)N[C@@H](CC(N)=O)C(=O)NCCCn2ccc3cc(O)ccc32)CCCCC1` yielded an IC50 of 0.3 nM.

What is called IC50 is the point on the concentration scale where inhibition reaches its midpoint. Read a low IC50 as greater potency.
